Data: patent US7962290B1, “Identification of pharmacophores from co-crystals of spleen tyrosine kinase (SYK) and SYK ligands” (Rigel Pharmaceuticals, Inc., priority 2006, dated 2011)

Assay: Precipitation of ligand in crystal soaking solution
Assay type: physicochemical
Description: The pooled fractions were dialyzed against 300 mM NaCl, 10 mM Hepes pH 7.5, 5 mM DTT overnight at 4° C. then concentrated to 10.9 mg/mL in a Vivaspin centrifugal concentrator (MWCO=10 kDa). Crystals were obtained at 20° C. in sitting drop plates using 1 μl of protein and 1 μl of crystallant (20% PEG 3000, 100 mM Citrate pH 5.5) equilibrated against 200 μl of crystallant in the reservoir. Plate-shaped crystals were observed after approximately 24 hours. A single crystal was transferred from the crystallization drop to a plate containing crystallant and 11.5 mM Cpd. No. 1. The crystal was soaked for 22.5 hours in this solution. […] The crystal was transferred to a cryoprotectant containing 20% PEG 3000, 100 mM Citrate pH 5:5, 15% glycerol then plunge frozen into liquid nitrogen for X-ray diffraction analysis.
The pooled fractions were dialyzed against 300 mM NaCl, 10 mM Hepes pH 7.5, 5 mM DTT, 10% glycerol overnight at 4° C. then concentrated to 10.0 mg/mL in a Vivaspin centrifugal concentrator (MWCO=10 kDa). Crystals were obtained at 20° C. in sitting drop plates using 1 μl of protein and 1 μl of crystallant (20% PEG 3000, 100 mM Citrate pH 5.5) equilibrated against 200 μl of crystallant in the reservoir. Plate-shaped crystals were observed after approximately 24 hours. […]

precipitation at the end of the soak (crystallant (20% PEG 3000, 100 mM Citrate pH 5.5) with 11.5 mM compound, 22.5 hours) | concentration of the ligand in solution (soak solution 30% PEG 3000, 50 mM Citrate pH 5.5, 5% DMSO, 2.4 mM added, 23.5 hours, some precipitation observed) | SMILES
Some precipitation |  | Oc1cccc(Nc2ncc(F)c(Nc3cccc(O)c3)n2)c1 [Cpd. No. 1]
 | less than 2.4 mM | COc1cc(Nc2ncc(F)c(Nc3ccc4c(n3)NC(=O)C(C)(C)O4)n2)cc(OC)c1OC [Cpd. No. 3]
